Assay results: article PMC11915835, “Enhancing the solubility of SARS-CoV-2 inhibitors to increase future prospects for clinical development” (Journal of Virology, 2025)

Each substance was assayed against SARS-CoV-2 S D614G (Severe acute respiratory syndrome coronavirus 2, UniProt P0DTC2, D614G). Conditions: read-out: IC90, inhibition of S-mediated cell–cell fusion, SARS-CoV-2 D614G.
Format: cell-based

Row | Substance | IC90 [nM]
1 | Ac-PDVDLGDISQINASVVNIEYEIKKLEEVAKKLEESLIDLQEL-NH2 [QE-EXT] | 90 ± 20
2 | Ac-DISQINASVVNIEYEIKKLEEVAKKLEESLIDLQEL-NH2 [QE] | 70 ± 10
3 | Ac-SIDQINATFVDIEYEIKKLEEVAKKLEESYIDLKEL-NH2 [SK] | 96 ± 20
